pIC50: −log10 of the molar value.

Assay [1] deals with DGKα (Homo sapiens, UniProt P23743). The assay can be described thus: DGKα biochemical assay (ADP-Glo). The conditions noted are these: read-out: DGK α IC50. An outline of the steps:
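ADP-Glo kinase assay using OAG/PS (1:2) lipid substrate, sonicated, in HEPES pH 7.0 buffer with MgCl2, CaCl2, DTT, BSA, Triton X-100. Enzyme preincubated with compound 30 min at RT; substrate with ATP (DGKα: 400 μM) added, 45 min RT. Luminescence read; % inhibition vs DMSO and no-enzyme controls.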
On the technique in general: ADP-Glo turns the ADP formed in a reaction into a luminescent signal.

For assay [2], the target named is T1, DGKζ (Homo sapiens, UniProt Q13574).
T1 construct: purchased Carna 12-110
T1 sequence (Q13574 1-929 isoform Q13574-4): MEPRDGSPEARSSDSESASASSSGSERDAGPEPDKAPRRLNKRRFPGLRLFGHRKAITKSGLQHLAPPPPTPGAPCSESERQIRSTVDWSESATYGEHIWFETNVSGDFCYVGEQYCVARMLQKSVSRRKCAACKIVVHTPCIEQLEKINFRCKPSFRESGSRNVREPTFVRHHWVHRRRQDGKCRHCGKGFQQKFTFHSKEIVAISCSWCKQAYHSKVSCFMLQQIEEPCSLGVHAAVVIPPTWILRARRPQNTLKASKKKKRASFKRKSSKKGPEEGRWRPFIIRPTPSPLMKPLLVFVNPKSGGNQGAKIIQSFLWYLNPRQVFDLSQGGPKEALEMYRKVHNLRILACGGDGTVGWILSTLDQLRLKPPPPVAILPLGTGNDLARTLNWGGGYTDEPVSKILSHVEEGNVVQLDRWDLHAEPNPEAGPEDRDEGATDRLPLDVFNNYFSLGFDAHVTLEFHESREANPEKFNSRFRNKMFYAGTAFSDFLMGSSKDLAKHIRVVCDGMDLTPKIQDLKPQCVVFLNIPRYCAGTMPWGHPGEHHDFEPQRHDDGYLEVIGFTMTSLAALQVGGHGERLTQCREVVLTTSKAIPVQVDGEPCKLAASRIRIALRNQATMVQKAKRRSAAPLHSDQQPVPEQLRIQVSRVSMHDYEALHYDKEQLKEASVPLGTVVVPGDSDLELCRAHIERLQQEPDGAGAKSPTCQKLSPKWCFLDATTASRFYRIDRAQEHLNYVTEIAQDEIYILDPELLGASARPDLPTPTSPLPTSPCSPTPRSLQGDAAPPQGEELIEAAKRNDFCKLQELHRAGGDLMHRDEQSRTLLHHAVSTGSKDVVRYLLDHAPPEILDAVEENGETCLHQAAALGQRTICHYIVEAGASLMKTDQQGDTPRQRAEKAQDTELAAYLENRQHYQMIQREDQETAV
The assay can be described thus: DGKζ biochemical assay (ADP-Glo). The conditions noted are these: read-out: DGK ζ IC50.

Chain of DGKα (P23743 whole entry): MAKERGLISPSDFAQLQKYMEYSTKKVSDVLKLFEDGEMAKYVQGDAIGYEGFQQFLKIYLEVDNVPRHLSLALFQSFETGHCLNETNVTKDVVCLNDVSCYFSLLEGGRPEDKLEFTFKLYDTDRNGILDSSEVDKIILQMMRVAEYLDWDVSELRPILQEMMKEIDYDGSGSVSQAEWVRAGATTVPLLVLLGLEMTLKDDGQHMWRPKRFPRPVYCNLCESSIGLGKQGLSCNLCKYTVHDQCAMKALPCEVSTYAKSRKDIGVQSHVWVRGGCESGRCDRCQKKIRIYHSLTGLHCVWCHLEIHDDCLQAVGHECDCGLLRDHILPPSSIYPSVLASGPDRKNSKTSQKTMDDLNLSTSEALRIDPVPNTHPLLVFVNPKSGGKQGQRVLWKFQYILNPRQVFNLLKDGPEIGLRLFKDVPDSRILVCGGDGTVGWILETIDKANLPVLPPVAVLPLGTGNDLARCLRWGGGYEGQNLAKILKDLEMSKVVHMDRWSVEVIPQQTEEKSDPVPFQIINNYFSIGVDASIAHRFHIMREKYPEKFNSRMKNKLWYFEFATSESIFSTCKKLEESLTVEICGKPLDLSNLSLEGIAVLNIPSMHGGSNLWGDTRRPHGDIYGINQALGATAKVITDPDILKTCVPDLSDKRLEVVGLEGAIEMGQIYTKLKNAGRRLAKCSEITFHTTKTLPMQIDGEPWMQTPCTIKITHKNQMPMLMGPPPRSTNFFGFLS

For the molecule `Cn1c(=O)c(C#N)c(N(C)[C@H]2CC[C@@H](N(CC3CCCOC3)c3ccc4c(c3)OCO4)CC2)c2nc(C#N)ccc21` (stereo partly drawn) [Example 116, cis-8-((-4-(benzo[d][1,3]dioxol-5-yl((tetrahydro-2H-pyran-3-yl)methyl)amino)cyclohexyl)(methyl)amino)-5-methyl-6-oxo-5,6-dihydro-1,5-naphthyridine-2,7-dicarbonitrile], the pIC50 is over 8.00 in assay [1] and 7.00 to 8.00 in assay [2].
Taken in the same sequence, the figures for `Cn1c(=O)c(C#N)c(N(C)[C@H]2CC[C@H](N(c3ccccc3O)C3CC3)CC2)c2nc(Cl)ccc21` [Example 3D, 6-Chloro-4-((trans-4-(cyclopropyl(2-hydroxyphenyl)amino)cyclohexyl)(methyl)amino)-1-methyl-2-oxo-1,2-dihydro-1,5-naphthyridine-3-carbonitrile] were 7.00 to 8.00 and 6.00 to 7.00.
As for `Cc1ccccc1N(CC1CC1)[C@H]1CC[C@H](N(C)c2cc(=O)n(C)c3ccc(C#N)nc23)CC1` [Example 70, trans-8-((4-((cyclopropylmethyl)(o-tolyl)amino)cyclohexyl)(methyl)amino)-5-methyl-6-oxo-5,6-dihydro-1,5-naphthyridine-2-carbonitrile], the pIC50 in assay [1] was at most 6.00; in assay [2], 6.00 to 7.00.
For the molecule `Cc1nc(F)ccc1N(CC1CCC1)[C@H]1CC[C@H](N(C)c2c(C#N)c(=O)n(C)c3ccc(Cl)nc23)CC1` [Example 139, trans-6-chloro-4-((-4-((cyclobutylmethyl)(6-fluoro-2-methylpyridin-3-yl)amino)cyclohexyl)(methyl)amino)-1-methyl-2-oxo-1,2-dihydro-1,5-naphthyridine-3-carbonitrile], the pIC50 in assay [1] and in assay [2] was at most 6.00 throughout.
For the molecule `Cc1cc(F)ccc1N(CC1CCC1)[C@H]1CC[C@H](N(C)c2c(C#N)c(=O)n(C)c3ccc(Cl)nc23)CC1` [Example 104, trans-6-chloro-4-((4-((cyclobutylmethyl)(4-fluoro-2-methylphenyl)amino)cyclohexyl)(methyl)amino)-1-methyl-2-oxo-1,2-dihydro-1,5-naphthyridine-3-carbonitrile], the pIC50 in assay [1] and in assay [2] was at most 6.00 throughout.
Consider `COc1cc(F)ccc1N(CC1CC1)[C@H]1CC[C@@H](N(C)c2c(C#N)c(=O)n(C)c3cccnc23)CC1` [Example 9, cis-4-((4-((cyclopropylmethyl)(4-fluoro-2-methoxyphenyl)amino)cyclohexyl)(methyl)amino)-1-methyl-2-oxo-1,2-dihydro-1,5-naphthyridine-3-carbonitrile], for which the pIC50 in assay [1] and in assay [2] was at most 6.00 in each case.
As to `COc1cc(N(CC2CC2)[C@H]2CC[C@H](N(C)c3cc(=O)n(C)c4ccc(C#N)nc34)CC2)ccc1F` [Example 36, trans-8-((4-((cyclopropylmethyl)(4-fluoro-3-methoxyphenyl)amino)cyclohexyl)(methyl)amino)-5-methyl-6-oxo-5,6-dihydro-1,5-naphthyridine-2-carbonitrile], the pIC50 in assay [1] and in assay [2] was at most 6.00 in each case.
Take `Cc1cc2c(cc1N(CC1CCC1)[C@H]1CC[C@@H](N(C)c3c(C#N)c(=O)n(C)c4ccc(Cl)nc34)CC1)OCO2` [Example 151, cis-6-chloro-4-((4-((cyclobutylmethyl)(6-methylbenzo[d][1,3]dioxol-5-yl)amino)cyclohexyl) (methyl)amino)-1-methyl-2-oxo-1,2-dihydro-1,5-naphthyridine-3-carbonitrile]: the pIC50 in assay [1] and in assay [2] was at most 6.00 throughout.
For `Cc1cc(F)ccc1N(CC1COCCN1C)[C@H]1CC[C@H](N(C)c2c(C#N)c(=O)n(C)c3ccc(C#N)nc23)CC1` (stereo partly drawn) [Example 185, trans-8-((-4-((4-fluoro-2-methylphenyl)((4-methylmorpholin-3-yl)methyl)amino)cyclohexyl) (methyl)amino)-5-methyl-6-oxo-5,6-dihydro-1,5-naphthyridine-2,7-dicarbonitrile], the pIC50 in assay [1] and in assay [2] was 6.00 to 7.00 in each case.
For `Cc1cc(F)ccc1N(CC1CC1)[C@H]1CC[C@@H](N(C)c2c(C#N)c(=O)n(C)c3ccc(C#N)nc23)CC1` [Example 119, cis-8-((4-((cyclopropylmethyl)(4-fluoro-2-methylphenyl)amino)cyclohexyl)(methyl)amino)-5-methyl-6-oxo-5,6-dihydro-1,5-naphthyridine-2,7-dicarbonitrile], the pIC50 in assay [1] was at most 6.00; in assay [2], 7.00 to 8.00.
Regarding `Cn1c(=O)c(C#N)c(N(C)[C@H]2CC[C@@H](N(CC3CCOC3)c3ccc(F)c(OC(F)F)c3)CC2)c2nc(C#N)ccc21` (stereo partly drawn) [Example 158, cis-8-((-4-((3-(difluoromethoxy)-4-fluorophenyl) ((tetrahydrofuran-3-yl)methyl)amino)cyclohexyl) (methyl)amino)-5-methyl-6-oxo-5,6-dihydro-1,5-naphthyridine-2,7-dicarbonitrile], the pIC50 in assay [1] and in assay [2] was 7.00 to 8.00 each time.
For the molecule `Cn1c(=O)c(C#N)c(N(C)[C@H]2CC[C@H](N(c3ccc(F)cc3)C3CCC3)CC2)c2nc(C#N)ccc21` [Example 19], the pIC50 in assay [1] and in assay [2] was 6.00 to 7.00 each time.
For the molecule `Cn1c(=O)cc(N(C)[C@H]2CC[C@@H](N(CC3CC3)c3ccc4c(c3)OCO4)CC2)c2nc(C#N)ccc21` [Example 75], the pIC50 is 7.00 to 8.00 in assay [1] and at most 6.00 in assay [2].
`Cc1cc(F)c(F)cc1N(CC1CCC1)[C@H]1CC[C@H](N(C)c2c(C#N)c(=O)n(C)c3ccc(C#N)nc23)CC1` [Example 138, trans-8-((4-((cyclobutylmethyl)(4,5-difluoro-2-methylphenyl)amino)cyclohexyl)(methyl)amino)-5-methyl-6-oxo-5,6-dihydro-1,5-naphthyridine-2,7-dicarbonitrile]: the pIC50 in assay [1] and in assay [2] was at most 6.00 throughout.
Consider `Cc1cc(F)ccc1N(C[C@H]1CCCO1)[C@H]1CC[C@H](N(C)c2c(C#N)c(=O)n(C)c3ccc(C#N)nc23)CC1` [Example 167, trans-8-((-4-((4-fluoro-2-methylphenyl)(((R)-tetrahydrofuran-2-yl)methyl)amino)cyclohexyl) (methyl)amino)-5-methyl-6-oxo-5,6-dihydro-1,5-naphthyridine-2,7-dicarbonitrile], for which the pIC50 in assay [1] is 6.00 to 7.00; in assay [2] it was 7.00 to 8.00.
`Cc1ccc2c(c1)c(N1CCC(N(CC3CC3)c3ccccc3)CC1)cc1nncn12` [Example 1F, N-(Cyclopropylmethyl)-1-(7-methyl-[1,2,4]triazolo[4,3-a]quinolin-5-yl)-N-phenylpiperidin-4-amine]: the pIC50 in assay [1] is 7.00 to 8.00; in assay [2] it was at most 6.00.
With `COc1cc(F)ccc1N(C)[C@H]1CC[C@H](N(C)c2c(C#N)c(=O)n(C)c3ccc(Cl)nc23)CC1` [Example 40, trans-6-chloro-4-((4-((4-fluoro-2-methoxyphenyl) (methyl)amino)cyclohexyl)(methyl)amino)-1-methyl-2-oxo-1,2-dihydro-1,5-naphthyridine-3-carbonitrile], the figures for the pIC50 in assay [1] and in assay [2] were 7.00 to 8.00 and at most 6.00, respectively.
Regarding `Cn1c(=O)c(C#N)c(N(C)[C@H]2CC[C@@H](N(CC3CCC3)c3ccc(F)cc3C(F)F)CC2)c2nc(C#N)ccc21` [Example 180, cis-8-((-4-((cyclobutylmethyl)(2-(difluoromethyl)-4-fluorophenyl)amino)cyclohexyl)(methyl)amino)-5-methyl-6-oxo-5,6-dihydro-1,5-naphthyridine-2,7-dicarbonitrile], the pIC50 in assay [1] and in assay [2] was 6.00 to 7.00 each time.
`CC(C)CN(c1ccc(F)cc1)[C@H]1CC[C@@H](N(C)c2c(C#N)c(=O)n(C)c3ccc(Cl)nc23)CC1` [Example 48, cis-6-chloro-4-((-4-((4-fluorophenyl)(isobutyl)amino)cyclohexyl)(methyl)amino)-1-methyl-2-oxo-1,2-dihydro-1,5-naphthyridine-3-carbonitrile]: the pIC50 in assay [1] was 6.00 to 7.00; in assay [2], at most 6.00.
With `CN1C(=O)COc2ccc(N(CC3CC3)[C@H]3CC[C@@H](N(C)c4c(C#N)c(=O)n(C)c5ccc(C#N)nc45)CC3)cc21` [Example 198, cis-8-((4-((cyclopropylmethyl)(4-methyl-3-oxo-3,4-dihydro-2H-benzo[b][1,4]oxazin-6-yl)amino)cyclohexyl)(methyl)amino)-5-methyl-6-oxo-5,6-dihydro-1,5-naphthyridine-2,7-dicarbonitrile], the pIC50 in assay [1] and in assay [2] was at most 6.00 each time.
With `CN1CCN(Cc2ccc(N(CC3CC3)C3CCC(N(C)c4c(C#N)c(=O)n(C)c5ccc(C#N)nc45)CC3)cc2)CC1` (single isomer, unassigned) [Example 199, (cis or trans)-8-((4-((cyclopropylmethyl)(4-((4-methylpiperazin-1-yl)methyl)phenyl)amino)cyclohexyl)(methyl)amino)-5-methyl-6-oxo-5,6-dihydro-1,5-naphthyridine-2,7-dicarbonitrile], the pIC50 in assay [1] and in assay [2] was at most 6.00 each time.
Regarding `COc1cc(F)ccc1N(CC1CC1)[C@H]1CC[C@@H](N(C)c2cc(=O)n(C)c3ccc(C#N)nc23)CC1` [Example 3Z, cis-8-[[4-(N-cyclopropylmethyl-N-4-fluoro-2-methoxyphenyl-anilino)cyclohexyl]-methyl-amino]-5-methyl-6-oxo-5,6-dihydro-1,5-naphthyridine-2-carbonitrile], the pIC50 in assay [1] and in assay [2] was 6.00 to 7.00 in each case.
With `COc1cccc(N(CC2CC2)[C@H]2CC[C@@H](N(C)c3c(C#N)c(=O)n(C)c4ccc(Cl)nc34)CC2)c1` [Example 11, cis-6-chloro-4-((4-((cyclopropylmethyl)(3-methoxyphenyl)amino)cyclohexyl)(methyl)amino)-1-methyl-2-oxo-1,2-dihydro-1,5-naphthyridine-3-carbonitrile], the pIC50 in assay [1] was 7.00 to 8.00; in assay [2], 6.00 to 7.00.

By pIC50 is commonly meant the IC50 on a negative log10 scale, so that one unit is a factor of ten.

The record behind these values is patent US20230271954A1 (Gossamer Bio Services, Inc., priority 2020, published 2023).
